# Results published in the supplement of paper PMC7695840.
# Several values for one entry are separate records, joined by “and”; a condition that tells them apart may be missing. Equal values may be shown once. Where a name gives a salt, the structure may show the parent alone.
# Legend:
# [1] = test system: Staphylococcus aureus MW2 (mecA+); assay: IC50 (growth, competition assay); conditions: cefoxitin: subinhibitory
# Procedure, shortened: (§1)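 Signals from DsRed (540/590) and GFP (485/520) were scaled on every plate between single-strain control medians, with No Treatment then set to 0.5. The cells were a 1:1 mix of pre-induced fluorescent S. aureus MW2 strains with and without the resistance gene, grown unshaken for 20 h at 37 °C and 90% humidity in LB in 1536-well plates under a subinhibitory drug dose set each day. Each strain's IC50 was defined as the dose halving the No Treatment signal, or the maximal signal.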
# [2] = test system: Staphylococcus aureus MW2 delta-mecA (mecA-); assay: IC50 (growth, competition assay); conditions: cefoxitin: subinhibitory
# Procedure, shortened: as §1
smiles,measurement,setting,value
CN(C)C(=S)SSC(=S)N(C)C [REZIFILM],IC50,[1]; fluorescent label: DsRed,33.4 µM
same,IC50,[1]; fluorescent label: GFP,63.6 µM
same,IC50,[2]; fluorescent label: DsRed,18.2 µM
same,IC50,[2]; fluorescent label: GFP,23.6 µM
Cc1cc(C2CCCCC2)n(O)c(=O)c1 [Ciclopirox (Penlac)],IC50,[1]; fluorescent label: DsRed,19 µM
same,IC50,[1]; fluorescent label: GFP,30.1 µM
same,IC50,[2]; fluorescent label: DsRed,29.7 µM
same,IC50,[2]; fluorescent label: GFP,29.5 µM
Cc1sc2c(c1C)C(c1ccc(Cl)cc1)=N[C@@H](CC(=O)OC(C)(C)C)c1nnc(C)n1-2 [(+)-JQ1],IC50,[1]; fluorescent label: DsRed,96.8 µM
same,IC50,[1]; fluorescent label: GFP,112 µM
same,IC50,[2]; fluorescent label: DsRed,47 µM
same,IC50,[2]; fluorescent label: GFP,35.2 µM
CC1(C)S[C@@H]2[C@H](NC(=O)[C@H](N)c3ccc(O)cc3)C(=O)N2[C@H]1C(=O)O [Amoxicillin sodium (Amox)],IC50,[1]; fluorescent label: DsRed,< 9.85 µM
same,IC50,[1]; fluorescent label: GFP,15.1 µM
same,IC50,[2]; fluorescent label: DsRed,< 9.85 µM
same,IC50,[2]; fluorescent label: GFP,< 9.85 µM
Cc1nnc(SCC2=C(C(=O)O)N3C(=O)[C@@H](NC(=O)Cn4cnnn4)[C@H]3SC2)s1 [Cefazolin sodium],IC50,[1]; fluorescent label: DsRed,< 9.85 µM
same,IC50,[1]; fluorescent label: GFP,< 9.85 µM
same,IC50,[2]; fluorescent label: DsRed,< 9.85 µM
same,IC50,[2]; fluorescent label: GFP,< 9.85 µM
Oc1c(Cl)cc(Cl)cc1Sc1cc(Cl)cc(Cl)c1O [LOROTHIDOL],IC50,[1]; fluorescent label: DsRed,< 9.85 µM
same,IC50,[1]; fluorescent label: GFP,< 9.85 µM
same,IC50,[2]; fluorescent label: DsRed,< 9.85 µM
same,IC50,[2]; fluorescent label: GFP,< 9.85 µM
CN[C@H](CC(C)C)C(=O)N[C@H]1C(=O)N[C@@H](CC(N)=O)C(=O)N[C@H]2C(=O)N[C@H]3C(=O)N[C@H](C(=O)N[C@H](C(=O)O)c4cc(O)cc(O)c4-c4cc3ccc4O)[C@H](O)c3ccc(c(Cl)c3)Oc3cc2cc(c3O[C@@H]2O[C@H](CO)[C@@H](O)[C@H](O)[C@H]2O[C@H]2C[C@](C)(N)[C@H](O)[C@H](C)O2)Oc2ccc(cc2Cl)[C@H]1O [VANCOCIN],IC50,[1]; fluorescent label: DsRed,< 9.85 µM
same,IC50,[1]; fluorescent label: GFP,< 9.85 µM
same,IC50,[2]; fluorescent label: DsRed,< 9.85 µM
same,IC50,[2]; fluorescent label: GFP,< 9.85 µM
NCCOB(c1ccccc1)c1ccccc1 [AMINOETHOXYDIPHENYLBORANE],IC50,[1]; fluorescent label: DsRed,25.6 µM
same,IC50,[1]; fluorescent label: GFP,25.1 µM
same,IC50,[2]; fluorescent label: DsRed,11.1 µM
same,IC50,[2]; fluorescent label: GFP,11.7 µM
O=C(O)Cc1cccc(OCCCN(Cc2cccc(C(F)(F)F)c2Cl)CC(c2ccccc2)c2ccccc2)c1 [GW3965 HCl],IC50,[1]; fluorescent label: DsRed,< 9.85 µM
same,IC50,[1]; fluorescent label: GFP,< 9.85 µM
same,IC50,[2]; fluorescent label: DsRed,< 9.85 µM
same,IC50,[2]; fluorescent label: GFP,< 9.85 µM
CCn1nc(C(=O)O)c(=O)c2cc3c(cc21)OCO3 [CINOBAC],IC50,[1]; fluorescent label: DsRed,> 150 µM
same,IC50,[1]; fluorescent label: GFP,115 µM
same,IC50,[2]; fluorescent label: DsRed,108 µM
same,IC50,[2]; fluorescent label: GFP,125 µM
CN[C@H]1CC[C@@H](c2ccc(Cl)c(Cl)c2)c2ccccc21 [ZOLOFT],IC50,[1]; fluorescent label: DsRed,103 µM
same,IC50,[1]; fluorescent label: GFP,106 µM
same,IC50,[2]; fluorescent label: DsRed,31.1 µM
same,IC50,[2]; fluorescent label: GFP,15.5 µM
Cc1ncc(-c2ccnc(Nc3ccc(S(C)(=O)=O)cc3)n2)n1C(C)C [AZD5438],IC50,[1]; fluorescent label: DsRed,> 150 µM
same,IC50,[1]; fluorescent label: GFP,> 150 µM
same,IC50,[2]; fluorescent label: DsRed,10.3 µM
same,IC50,[2]; fluorescent label: GFP,< 9.85 µM
Clc1ccc(C(Cn2ccnc2)OCc2ccsc2Cl)c(Cl)c1 (stereo unspecified) [VAGISTAT],IC50,[1]; fluorescent label: DsRed,29.6 µM
same,IC50,[1]; fluorescent label: GFP,30.6 µM
same,IC50,[2]; fluorescent label: DsRed,16.9 µM
same,IC50,[2]; fluorescent label: GFP,15 µM
C[C@H]1COC2=C1C(=O)C(=O)c1c2ccc2c1CCCC2(C)C [CRYPTOTANSHINONE],IC50,[1]; fluorescent label: DsRed,13 µM
same,IC50,[1]; fluorescent label: GFP,15.7 µM
same,IC50,[2]; fluorescent label: DsRed,11.3 µM
same,IC50,[2]; fluorescent label: GFP,10.5 µM
Cc1cc2c(C(C)C)c(O)c(O)c(C=O)c2c(O)c1-c1c(C)cc2c(C(C)C)c(O)c(O)c(C=O)c2c1O [Gossypol],IC50,[1]; fluorescent label: DsRed,< 9.85 µM
same,IC50,[1]; fluorescent label: GFP,< 9.85 µM
same,IC50,[2]; fluorescent label: DsRed,< 9.85 µM
same,IC50,[2]; fluorescent label: GFP,< 9.85 µM
"CC(=O)Oc1ccccc1C(=O)Nc1ncc([N+](=O)[O-])s1 [Nitazoxanide (Alinia, Annita)]",IC50,[1]; fluorescent label: DsRed,55.5 µM
same,IC50,[1]; fluorescent label: GFP,57.6 µM
same,IC50,[2]; fluorescent label: DsRed,21.9 µM
same,IC50,[2]; fluorescent label: GFP,24.9 µM
CC1(C)S[C@@H]2[C@H](NC(=O)C(C(=O)O)c3ccccc3)C(=O)N2[C@H]1C(=O)O (stereo partly specified) [CARBECIN],IC50,[1]; fluorescent label: DsRed,23.7 µM
same,IC50,[1]; fluorescent label: GFP,36.6 µM
same,IC50,[2]; fluorescent label: DsRed,< 9.85 µM
same,IC50,[2]; fluorescent label: GFP,< 9.85 µM
CCN1CCN(c2cc3c(cc2F)c(=O)c(C(=O)O)cn3C2CC2)CC1 [BAYTRIL],IC50,[1]; fluorescent label: DsRed,< 9.85 µM
same,IC50,[1]; fluorescent label: GFP,< 9.85 µM
same,IC50,[2]; fluorescent label: DsRed,< 9.85 µM
same,IC50,[2]; fluorescent label: GFP,< 9.85 µM
C[C@H]1COc2c(N3CCN(C)CC3)c(F)cc3c(=O)c(C(=O)O)cn1c23 [LEVAQUIN],IC50,[1]; fluorescent label: DsRed,< 9.85 µM
same,IC50,[1]; fluorescent label: GFP,< 9.85 µM
same,IC50,[2]; fluorescent label: DsRed,< 9.85 µM
same,IC50,[2]; fluorescent label: GFP,< 9.85 µM
COc1cc(Cc2cnc(N)nc2N)cc(OC)c1OC [Trimethoprim],IC50,[1]; fluorescent label: DsRed,12.4 µM and < 9.85 µM
same,IC50,[1]; fluorescent label: GFP,14.6 µM and 14.2 µM
same,IC50,[2]; fluorescent label: DsRed,< 9.85 µM
same,IC50,[2]; fluorescent label: GFP,< 9.85 µM
C[C@H]1[C@H](C)CC[C@]2(C(=O)O)CC[C@]3(C)C(=CC[C@@H]4[C@@]5(C)C[C@@H](O)[C@H](O)[C@@](C)(CO)[C@@H]5CC[C@]43C)[C@H]12 [ASIATIC ACID],IC50,[1]; fluorescent label: DsRed,109 µM
same,IC50,[1]; fluorescent label: GFP,> 150 µM
same,IC50,[2]; fluorescent label: DsRed,123 µM
same,IC50,[2]; fluorescent label: GFP,115 µM
Clc1ccc(CO/N=C(\Cn2ccnc2)c2ccc(Cl)cc2Cl)c(Cl)c1 [OXISTAT],IC50,[1]; fluorescent label: DsRed,35.3 µM
same,IC50,[1]; fluorescent label: GFP,43.3 µM
same,IC50,[2]; fluorescent label: DsRed,30.4 µM
same,IC50,[2]; fluorescent label: GFP,17.3 µM
Cc1cc2nc3c(=O)[nH]c(=O)nc-3n(C[C@H](O)[C@H](O)[C@H](O)CO)c2cc1C [Riboflavin (Vitamin B2)],IC50,[1]; fluorescent label: DsRed,> 150 µM
same,IC50,[1]; fluorescent label: GFP,> 150 µM
same,IC50,[2]; fluorescent label: DsRed,> 150 µM
same,IC50,[2]; fluorescent label: GFP,> 150 µM
CCCCCCCCNC(C)C(O)c1ccc(SC(C)C)cc1 (stereo unspecified) [SULOCTIDIL],IC50,[1]; fluorescent label: DsRed,29.6 µM
same,IC50,[1]; fluorescent label: GFP,27.5 µM
same,IC50,[2]; fluorescent label: DsRed,17.3 µM
same,IC50,[2]; fluorescent label: GFP,24.4 µM
COC(=O)CC[C@@H](C)[C@H]1CC[C@H]2[C@@H]3CC[C@@H]4C[C@H](O)CC[C@]4(C)[C@H]3C[C@H](O)[C@]12C [METHYL DEOXYCHOLATE],IC50,[1]; fluorescent label: DsRed,15.4 µM
same,IC50,[1]; fluorescent label: GFP,26.9 µM
same,IC50,[2]; fluorescent label: DsRed,13.9 µM
same,IC50,[2]; fluorescent label: GFP,9.91 µM
CC[C@H]1OC(=O)[C@H](C)[C@@H](O[C@H]2C[C@@](C)(OC)[C@@H](O)[C@H](C)O2)[C@H](C)[C@@H](O[C@@H]2O[C@H](C)C[C@H](N(C)C)[C@H]2O)[C@](C)(O)C[C@@H](C)C(=O)[C@H](C)[C@@H](O)[C@]1(C)O [ERYDERM],IC50,[1]; fluorescent label: DsRed,< 9.85 µM
same,IC50,[1]; fluorescent label: GFP,< 9.85 µM
same,IC50,[2]; fluorescent label: DsRed,< 9.85 µM
same,IC50,[2]; fluorescent label: GFP,< 9.85 µM
CCn1cc(C(=O)O)c(=O)c2cnc(N3CCNCC3)nc21 [PIPEDAC],IC50,[1]; fluorescent label: DsRed,38 µM
same,IC50,[1]; fluorescent label: GFP,60.4 µM
same,IC50,[2]; fluorescent label: DsRed,64.9 µM
same,IC50,[2]; fluorescent label: GFP,36.5 µM
O=c1[nH]cc(F)c(=O)[nH]1 [Adrucil (Fluorouracil)],IC50,[1]; fluorescent label: DsRed,1.76 µM
same,IC50,[1]; fluorescent label: GFP,1.78 µM
same,IC50,[2]; fluorescent label: DsRed,< 0.498 µM
same,IC50,[2]; fluorescent label: GFP,< 0.498 µM
CCOc1nc2cccc(C(=O)OCc3oc(=O)oc3C)c2n1Cc1ccc(-c2ccccc2-c2noc(=O)[nH]2)cc1 [Azilsartan Medoxomil (TAK-491)],IC50,[1]; fluorescent label: DsRed,48.4 µM
same,IC50,[1]; fluorescent label: GFP,67 µM
same,IC50,[2]; fluorescent label: DsRed,11.9 µM
same,IC50,[2]; fluorescent label: GFP,10.2 µM
